From patent US20120115907A1, “NOVEL COMPOUNDS AS INHIBITORS OF RENIN” (CADILA HEALTHCARE LIMITED, priority 2009, published 2012)

Assays:
[1] = tested on: Guinea Pigs; assay: Anaesthetized Guinea Pig Model (furosemide-treated, blood pressure via carotid artery); format: in vivo; parameters: unit not given beside the values; conditions: intravenous, change from pretreatment
Method: Anaesthetized Guinea Pig Model
Experimental Procedure: Guinea Pigs were Treated with Furosemide in Drinking Water
(5 mg/kg/day) for four days and intramuscular injection (10 mg/kg) at 18 and 3 hr before experiment. There after they were anaesthetized by using intramuscular injection of xylazine and ketamine (7:70 mg/kg mixture). The left or right jugular vein was exposed and cannulated for intravenous administration of the NCEs. The to left or right carotid artery was exposed and cannulated for recording blood pressure using Biopac system. 0 (vehicle control), 3 and 10 mg of NCEs were administered and change in blood pressure from pretreatment was measured.

[2] = biological target: T1, human recombinant renin (Homo sapiens, UniProt P00797); assay: Inhibition of human recombinant renin (modified Cayman renin inhibitor screening assay, fluorescence); format: biochemical; conditions: for inhibition at 0.01 µM: read-out: Renin inhibition (percent inhibition of renin activity) at 0.01 μM; for inhibition at 0.1 µM: read-out: Renin inhibition (percent inhibition of renin activity) at 0.1 μM
T1 construct: purchased Cayman 10006270
T1 sequence (P00797 67-406): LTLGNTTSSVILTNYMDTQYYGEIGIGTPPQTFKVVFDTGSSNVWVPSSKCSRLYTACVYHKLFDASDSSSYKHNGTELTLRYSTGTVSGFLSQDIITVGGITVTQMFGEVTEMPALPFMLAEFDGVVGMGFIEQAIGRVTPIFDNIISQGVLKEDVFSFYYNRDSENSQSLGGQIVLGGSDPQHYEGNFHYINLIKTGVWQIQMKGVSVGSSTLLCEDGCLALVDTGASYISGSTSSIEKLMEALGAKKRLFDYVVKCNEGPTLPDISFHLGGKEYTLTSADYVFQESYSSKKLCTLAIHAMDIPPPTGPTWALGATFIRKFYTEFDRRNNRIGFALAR
Method: In-vitro protocol for the Inhibition of human recombinant renin by the compound of invention • Procedure: The enzymatic in vitro assay was performed in 96 well polypropylene plate (Nunc), using a modified Renin inhibitor screening assay protocol (Cayman, cat no: 10006270). The reaction system comprised assay buffer containing 50 mM Tris-HCL, pH=8.0 & 100 mM sodium chloride, human recombinant rennin (1:20 diluted with fixed activity), synthetic renin substrates (Cayman, cat no: 10006906) (14.4 μM) and different concentrations of renin inhibitors in DMSO in a total reaction system of 100 μl. The entire reaction mixture were incubated at 37° C. for 30 mins and the fluorescence was read at excitation wavelengths of 320-360 nm and emission wavelengths of 490-520 nm. Test compounds efficacy was determined by the percent inhibition of renin activity using Aliskiren (Tekturna) as a reference standard.
Following table represents measured IC50 values of the selected compounds for its inhibition of human recombinant renin.

[3] = 0.01 μM compound, 37° C., 30 mins, human recombinant renin
[4] = 0.1 μM compound, 37° C., 30 mins, human recombinant renin

IC50 [2] [µM] | inhibition at 0.01 µM [2, 3] [%] | inhibition at 0.1 µM [2, 4] [%] | melting point [°C] | Renin inhibition (percent inhibition of renin activity) at 0.01 μM [2, 3] [%] | Renin inhibition (percent inhibition of renin activity) at 0.1 μM [2, 4] [%] | SMILES | Reduction in M.A.B.P ([1]; 3 mg) | Reduction in M.A.B.P ([1]; 10 mg)
0.016 | 88 | 100 | 66 to 68 |  |  | O=C(NC1CCNCC1C(=O)N(Cc1cccc(Cl)c1Cl)C1CC1)c1ccc(OCCOc2c(Cl)cccc2Cl)cc1 (stereo not shown) [Example 1, N-cyclopropyl-N-(2,3-dichlorobenzyl)-4-(4-(2-(2,6-dichlorophenoxy)ethoxy)benzamido) piperidine-3-carboxamide] | 18 | 30
0.021 |  |  |  | 67 | 97 | Cc1cc(Cl)c(OCCOc2ccc(C(=O)N[C@H]3CCNCC3C(=O)N(Cc3cccc(C)c3C)C3CC3)cc2)c(Cl)c1 (stereo partly drawn) [Example 26, (4S)—N-Cyclopropyl-4-(4-(2-(2,6-dichloro-4-methylphenoxy)ethoxy)benzamido)-N-(2,3-dimethylbenzyl)piperidine-3-carboxamide] | 14 | 28
0.037 | 22 | 91 |  |  |  | COc1ccccc1CN(C(=O)C1CNCC[C@@H]1NC(=O)c1ccc(OCCOc2c(Cl)cc(C)cc2Cl)cc1)C1CC1.Cl (stereo partly drawn) [Example 31, (4S)—N-Cyclopropyl-4-(4-(2-(2,6-dichloro-4-methylphenoxy)ethoxy)benzamido)-N-(2-methoxybenzyl)piperidine-3-carboxamide hydrochloride] | 8 | 28
